The values below come from patent publication US8889729B2, “Compositions for treating amyloid associated diseases” (Tel Aviv University Future Technology Development L.P., priority 2004, dated 2014).

Assay [1] addresses T1, Aβ1-40 (Homo sapiens, UniProt P05067).
T1 construct: Synthetic lyophilized β-amyloid polypeptides (Aβ 1-40 and Aβ 1-42, >98% pure); purchased Bachem (Bubendorf, Switzerland); host or cells: chemical synthesis
Kind of assay: Kinetics of Aβ1-40 fibrillogenesis inhibition, ThT fluorescence assay. The assay is classed as biochemical. The method, then: Aβ solutions: Synthetic lyophilized β-amyloid polypeptides (Aβ 1-40 and Aβ 1-42, >98% pure) were purchased from Bachem (Bubendorf, Switzerland). A 100 μM Aβ stock solution was prepared by dissolving Aβ1-40 or Aβ1-42 in dimethylsulfoxide (DMSO) and sonicating the resulting solution during 1 minute to avoid pre-aggregation. Aβ solutions were prepared by immediate dilution with 10 mM phosphate-buffered saline (100 mM NaCl, 0.5 mM EDTA, pH 7.4) to a final concentration of 10 μM (containing 10% (v/v) DMSO).
Indole derivatives stock solutions were prepared by dissolving an indole derivative in DMSO, so as to achieve a concentration of 20 mM and then diluting the solution with 10 mM PBS buffer (100 mM NaCl, 0.5 mM EDTA, pH 7.4) to a final concentration of 100 μM (containing 0.5% (v/v) DMSO).
Thioflavin T fluorescence assay: Fibrillization of A[…] 1-42 polypeptide was monitored using a Thioflavin T (ThT) dye binding assay. A 10 μM Aβ solution (either Aβ1-40 or Aβ1-42) was prepared as described above and was immediately mixed with the indole derivative stock solutions (100 μM), so as to achieve a final concentration of 5 μM for Aβ and various concentrations of the indole derivative. For each measurement, ThT was added to a 0.1 ml sample, to give a final concentration of 0.3 μM ThT and 0.4 μM Aβ. The samples were incubated at 37° C. Fluorescence measurements, made after addition of the ThT solution to each sample at 37° C., were carried out using a Jobin Yvon FluoroMax-3 spectrometer (excitation 450 nm, 2.5 nm slit; emission 480 nm, 5 nm slit, integration time of 1 second). Background was subtracted from each sample. Each experiment was repeated in quadruplicate.
Kinetics Studies of Aβ1-40 Fibrillogenesis Inhibition: Aβ1-40, which has a slower fibrillogenesis rate [see, Jarrett et al. (1993) Biochemistry 32, 4693-4697] was used in these studies, in order to obtain better temporal resolution, assuming that a slower rate would allow more significant inhibition and a better understanding of the effect. 3-Hydroxyindole (denoted as 3HI), 4-hydroxyindole (denoted as 4HI) and indole-3-carbinol (denoted herein as I3C) were each added at concentrations of 5 μM, 25 μM, and 50 μM to a solution containing 5 μM of Aβ1-40 (prepared as described above) and the kinetics of Aβ1-40 fibrillogenesis inhibition was measured using the ThT fluorescence assay.

Assay [2] deals with T2, Aβ 1-40 polypeptide (Homo sapiens, UniProt P05067).
T2 construct: Recombinant β-amyloid (Aβ 1-40, >98% pure) polypeptide; purchased rPeptide (Athens Ga., USA)
In words: Transmission electron microscopy of ThT assay samples (Example 1). As to conditions: 10 μM compound, sample at about 192 hours. As to the method:
Transmission Electron Microscopy (TEM) Measurements: 10 μl samples from the ThT fluorescence assay were placed on 400-mesh copper grids (SPI supplies, West Chester Pa.) covered by carbon stabilized Formvar film. After 1 minute, excess fluid was removed, and the grids were negatively stained with 2% uranyl acetate in water for another two minutes. Microstructural features of the samples were viewed using a JEOL 1200EX electron microscope operating at 80 kV.
In order to obtain insight into the mechanism of inhibiting formation of β-amyloidpolypeptide type of amyloid fibrils, representative samples taken from the ThT fluorescence assay measurements described above after attainment of the plateau (at about 192 hours, FIG. 2), in the absence or presence of indole-3-carbinol, were viewed using electron microscopy.

The target of assay [3] is T1, Aβ1-40. In words: TEM ultrastructural analysis of Aβ1-40 samples from kinetic studies. As to conditions: 50 μM compound, 14 days incubation. As to the method:
Transmission Electron microscopy (TEM): A 10 μl sample of the ThT fluorescence assay was placed on a 400 mesh copper grid covered by carbon-stabilized Formvar film (SPI Supplies, West Chester, Pa.). After 1.5 minutes, excess fluid was removed and the grids were negatively stained for 2 minutes with 10 μl of 2% uranyl acetate solution. Excess fluid was removed and the samples were viewed using a JEOL 1200EX electron microscope operating at 80 kV. Ultrastructural Analysis of amyloid fibril formation: The effect of the indole derivatives on the ultrastructural properties of the assembled Aβ was first evaluated by TEM measurements. Thus, TEM analysis was performed with samples of Aβ1-40 obtained from the kinetic studies described above after incubation for 14 days.

Where [4] appears, read: 5 μM, 25 μM and 50 μM tested, 5 μM Aβ1-40.

As a reminder, the inhibition is the share of the control response that was lost under treatment.

T1 sequence (P05067 672-711 limits assumed): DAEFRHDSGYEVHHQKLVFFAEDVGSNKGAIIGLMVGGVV
T2 sequence (P05067 672-711 limits assumed): as above

With `OCc1c[nH]c2ccccc12` [indole-3-carbinol], in assay [1] (setting [4]), the “effect on nucleation phase (lag phase) compared with control” value was “no effect on the nucleation phase” and the “effect on slope of growth curve (polymerization phase)” value is recorded as “effect on the slope of the growth curve only at 50 μM”. Also, the inhibition at 50 µM in assay [1] (50 μM compound, 5 μM Aβ1-40, endpoint of experiment, read-out: inhibition level at final equilibrium phase) was approximately 50%. In assay [2], the “fibril morphology by electron microscopy” value is “significantly shorter and less dense fiber type material”. The “fibril ultrastructure by TEM” value in assay [3] is “smaller amounts of amyloid fibril aggregates”.
